{
  "source": "patent US9868935B2",
  "about": "“Composition and method of stem cells for preservation of cardiac tissue” (CRIOESTAMINAL, SAÚDE E TECNOLOGIA, SA., priority 2012, dated 2018)",
  "key": {"[1]": {"tested_on": "human umbilical cord blood derived CD34+ cells", "assay": "CD34+ cell survival in hypoxia and serum deprived conditions (Annexin V/PI flow cytometry)", "assay_type": "cell-based", "conditions": "for percentage of viable cells: LPA-treated (100 μM)", "protocol": "In an embodiment, UCB CD34+ cells (1×10^^6 cells/mL) were incubated in X-Vivo media (Lonza) in a hypoxia chamber for 24 h (0.5% of O2 and 5% of CO2), in the presence or absence of pharmacological drugs, for further assessment of cell survival/apoptosis and necrosis by FACS analysis of the expression of annexin V and PI respectively. Preferably, cells were pretreated with the respective drugs for 1 hour before hypoxia, and treatment maintained during hypoxia.\nIn a preferred embodiment, to identify molecules that promote CD34+ cell survival in hypoxia and serum deprived conditions we developed an assay that uses human umbilical cord blood derived CD34+ cells (2×10^^5 cells per well of a 96-well plate) suspended in X-Vivo medium (used in clinical trials (Schachinger, V., et al., Intracoronary bone marrow-derived progenitor cells in acute myocardial infarction. N Engl J Med, 2006. 355(12): p. 1210-21)) and incubated in a hypoxia chamber at 0.5% O2, at 37° C., for 24 h. Some of the drugs selected have been approved by FDA for the treatment of cardiovascular diseases (e.g. Nebivolol Lombardo, R. M., et al., Effects of nebivolol versus carvedilol on left ventricular function in patients with chronic heart failure and reduced left ventricular systolic function. Am J Cardiovasc Drugs, 2006. 6(4): p. 259-63; Ibersatan Massie, B. M., et al., Irbesartan in patients with heart failure and preserved ejection fraction. N Engl J Med, 2008. 359(23): p. 2456-67), others are being evaluated in pre-clinical/clinical assays to improve heart function in patients/models with heart failure (e.g. INO1001 (Szabo, G., et al., INO-1001 a novel poly(ADP-ribose) polymerase (PARP) inhibitor improves cardiac and pulmonary function after crystalloid cardioplegia and extracorporal circulation. Shock, 2004. 21(5): p. 426-32); erythropoietin (Belonje, A. M., et al., Effects of erythropoietin after an acute myocardial infarction: rationale and study design of a prospective, randomized, clinical trial (HEBE III). Am Heart J, 2008. 155(5): p. 817-22); melatonin (Chen, Z., et al., Protective effect of melatonin on myocardial infarction. Am J Physiol Heart Circ Physiol, 2003. 284(5): p. H1618-24); VX-702 (Ma, X. L., et al., Inhibition of p38 mitogen-activated protein kinase decreases cardiomyocyte apoptosis and improves cardiac function after myocardial ischemia and reperfusion. Circulation, 1999. 99(13): p. 1685-91)), others are natural substances found in the human body (LPA). Cell viability was evaluated by flow cytometry using Annexin V/propidium iodide (PI) staining. Annexin V is a phospholipid-binding protein with specificity for phospatidyl serine, one of the earliest makers of cellular transition to an apoptotic state. This phospholipid is translocated from the inner to the outer leaflet of the plasma membrane (Koopman, G., et al., Annexin V for flow cytometric detection of phosphatidylserine expression on B cells undergoing apoptosis. Blood, 1994. 84(5): p. 1415-20.). PI enters in necrotic cells and binds to double-stranded nucleic acids, but is excluded from cells with normal integrity. According to FIG. 1, untreated CD34+ cells show a very poor survival, with only ˜31% of viable cells, ˜31% of apoptotic cells (Annexin V+/PI−) being the majority of the cells ˜39% at the necrotic stage (PI+). […] LPA (10 μM) was the drug with the highest pro-survival effect (˜69% of viable cells) and therefore further studied (FIGS. 1 and 2A).\nImportantly, the percentage of viable cells in CD34+ treated with 1 μM of LPA and cultured under hypoxia conditions is similar to untreated cells cultured under normoxia conditions. The pro-survival effect of LPA decreases as a function of hypoxia time (FIG. 2C). The percentage of viable cells in LPA-treated CD34+ cells decreased from 78% at day 1 to 40% at day 3."}, "[2]": {"tested_on": "CD34+ cells", "assay": "CD34+ cell proliferation after hypoxia 24 h then normoxia 6 days", "assay_type": "cell-based, human", "conditions": "LPA 100 μM; 24 h hypoxia + 6 days normoxia (7 days period)", "description": "LPA is highly mitogenic for quiescent cells. The mitogenic action of LPA involves the activation of a pertussis toxin-insensitive G protein with subsequent Ca^2+ mobilization and stimulation of protein kinase C, release of arachidonic acid in a GTP-dependent manner, and activation of a pertussis toxinsensitive Gi protein mediating inhibition of adenylate cyclase (van Corven, E. J., et al., Lysophosphatidate-induced cell proliferation: identification and dissection of signaling pathways mediated by G proteins. Cell, 1989. 59(1): p. 45-54). To determine whether LPA can induce the proliferation of CD34+ cells, a suspension of untreated or LPA-treated cells (2×10^^5 cells in 200 μL of X-vivo medium) was exposed to hypoxia for 24 h and then cultured under normoxia conditions for 6 additional days. LPA-treated cells increased their number approximately 3-fold over the 7 days period while untreated cells decreased to half of their initial number (FIG. 3A)."}, "[3]": {"tested_on": "CD34+ cells", "assay": "CD34+ cell self-renewal/differentiation by FACS", "assay_type": "cell-based, human", "conditions": "LPA-treated; after 1 day of hypoxia", "protocol": "In an embodiment, multicolor analysis for progenitor and stem cell phenotyping was performed on a FACS Calibur cytometer (preferably, Becton Dickinson). Cells were stained for 1 h with APC or pacific blue antihuman CD45 (preferably, e-Bioscience), FITC anti-mouse CD45 (preferably, -Bioscience), PeCy7 anti-human CD33 (preferably, BD Bioscience), PE anti-human CD11b (preferably, BD Bioscience), FITC anti-human CD19 (preferably, BD Bioscience), PeCy7 anti-human CD3 (preferably, BD Bioscience), PE anti-human Glycophorin A (preferably, BD Bioscience), FITC anti-human CD41 (preferably, e-bioscience), and PeCy7 anti-human CD56 (preferably, BD Bioscience), washed with staining media and analyzed.\nTo examine the effect of LPA in CD34+ cell self-renewal/differentiation, untreated and LPA-treated CD34+ cells were cultured in X-vivo medium in hypoxia conditions for 1 day followed or not by 6 days in normoxia and finally characterized by FACS. After 1 day of hypoxia, both untreated or LPA-treated CD34+ cells started to differentiate into mast cells (between 14 and 17%) and neutrophils (between 5 and 8%) (FIG. 3B). Only 78% and 72% of the untreated or LPA-treated CD34+ cells express CD34 marker. CD34 expression is higher in cells that have been exposed to hypoxia than in normoxia conditions since only 6% of the cells cultured in normoxia conditions for 24 h express CD34 marker. […]"}},
  "data": [
    {"substance": "lysophosphatidic acid [LPA]", "values": [
      {"measurement": "survival of CD34+ cells vs control (untreated cells)", "setting": "[1]; 1 μM LPA, hypoxia 24 h, P<0.001, n=6", "result": "statistically significant"},
      {"measurement": "viable cells", "setting": "[1]; LPA 10 μM, hypoxia 0.5% O2, 24 h, serum free X-Vivo medium", "result": "~69", "unit": "%"},
      {"measurement": "percentage of viable cells", "setting": "[1]; hypoxia day 1", "result": 78, "unit": "%"},
      {"measurement": "percentage of viable cells", "setting": "[1]; hypoxia day 3", "result": 40, "unit": "%"},
      {"measurement": "cell survival vs untreated cells", "setting": "[1]; hypoxia 0.5% O2, 24 h, serum free, P<0.001", "result": "improved significantly"},
      {"measurement": "survival relatively to untreated cells", "setting": "[1]; hypoxia and serum deprived conditions", "result": "double their survival"},
      {"measurement": "increase in cell number", "setting": "[2]", "result": "approximately 3 fold"},
      {"measurement": "cells expressing CD34 marker", "setting": "[3]", "result": 72, "unit": "%"}
    ]}
  ]
}
